# Measurements: patent US10758467B2, “Highly substantive water-soluble UV absorbers and process for preparation thereof” (GALAXY SURFACTANTS LTD., priority 2018, dated 2020)
# How the values were obtained:
# [1] = UV absorption (molar extinction coefficient); type: physicochemical
# [2] = tested on: Candida albicans ATCC 10231; experiment: Minimum growth inhibitory concentration; type: cell-based
# Excerpt: (§1) The doubly quaternized UV absorbers of Formula I (R═C8H17 to C22H45) according to the invention show decent antimicrobial properties. The minimum growth inhibitory concentrations against G +ve, G −ve bacteria and against the yeast for two compounds of Formula I of Example 3 and Example 4 are given in the Table III. This antimicrobial property is useful for preservation of personal care formulations. The antimicrobial activity against dandruff causing microorganism, Malassezia furfur is useful for hair care applications.
# [3] = tested on: Pseudomonas aeruginosa Immune type IV; experiment: Minimum growth inhibitory concentration; type: cell-based
# Excerpt: as §1
# [4] = tested on: Staphylococcus aureus ATCC6538; experiment: Minimum growth inhibitory concentration; type: cell-based
# Excerpt: as §1
# [5] = tested on: Malassezia furfur MTCC 1374; experiment: Minimum growth inhibitory concentration; type: cell-based
# Excerpt: as §1
# [6] = tested on: Escherichia coli ATCC 10142; experiment: Minimum growth inhibitory concentration; type: cell-based
# Excerpt: as §1
# [7] = tested on: Propionibacterium acnesMTCC 1951; experiment: Minimum growth inhibitory concentration; type: cell-based, Propionibacterium acnes
# Excerpt: as §1
# [8] = Zeta potential (Zetasizer Nano, Malvern) and charge density; type: physicochemical; conditions: for Zeta potential: 1% dispersion
# Excerpt: Zeta potential of 1% dispersion of doubly quaternized UV absorber, Formula I, R═C18H37 and R1═OCH3 is found to be […] (Zetasizer Nano, Malvern). […] Also the high zeta potential (+46 mV) ensures the stability of colloidal formulations.
# Molar extinction coefficient, ∈, in water: 19,700 mol^−1cm^−1 at 307 nm. Zeta potential: +46 mV, Charge density: 0.3066 meq/gram
# [9] = Surface-active properties (surface tension of water, CMC); type: physicochemical
# Protocol: They reduce the surface tension of water from 72 Mn/m to 35 Mn/m at 1.0% concentration, at 30° C. These quaternized UV absorbers behave like cationic surface active agents and can be easily titrated against an anionic surfactant as a standard for two-phase titration for the determination of active matter.
# Critical micelle concentration at 25° C. is 2.29×10^−3 mM
structure (smiles),measurement,setting,value
"COc1ccc(C=CC(=O)NCCCN(C)C)cc1 [Example 1, p-methoxycinnamido propyldimethylamine]","Molar extinction coefficient, ∈","[1]; in methanol, at 290 nm","24,224"
"COc1ccc(C=CC(=O)NCCC[N+](C)(C)CC(O)C[N+](C)(C)C)cc1.[Cl-].[Cl-] (stereo not shown) [Example 2, p-methoxy cinnamidopropyl (2-hydroxypropyl trimethyl ammonium chloride) dimonium chloride]","Molar extinction coefficient, ∈","[1]; in water, at 290 nm","22,000 mol^−1cm^−1"
"CCCCCCCCCCCC[N+](C)(C)CC(O)C[N+](C)(C)CCCNC(=O)C=Cc1ccc(OC)cc1.[Cl-].[Cl-] (stereo not shown) [Example 3, p-methoxy cinnamidopropyl (2-hydroxypropyl lauryl dimethyl ammonium chloride) dimonium chloride]","Molar extinction coefficient, ∈","[1]; in water, at 305 nm","19,500 mol^−1cm^−1"
same,minimum growth inhibitory concentration,[2],0.3%
same,minimum growth inhibitory concentration,[3],0.4%
same,minimum growth inhibitory concentration,[4],0.3%
same,minimum growth inhibitory concentration,[5],0.5%
same,minimum growth inhibitory concentration,[6],0.4%
same,minimum growth inhibitory concentration,[7],0.5%
"CCCCCCCCCCCCCCCCCC[N+](C)(C)CC(O)C[N+](C)(C)CCCNC(=O)/C=C/c1ccc(OC)cc1 (stereo not shown) [Example 4, p-methoxy cinnamidopropyl (2-hydroxypropyl stearyl dimethyl ammonium chloride) dimonium chloride]",Charge density,[8],0.3066 meq/gram
same,Zeta potential,[8],+46 mV
same,Zeta potential,"[8]; listed as Formula I, R═C18H37 and R1═OCH3",+47 mV
same,"Molar extinction coefficient, ∈","[1]; in water, at 307 nm","19,700 mol^−1cm^−1"
same,minimum growth inhibitory concentration,[2],0.3%
same,minimum growth inhibitory concentration,[3],0.4%
same,minimum growth inhibitory concentration,[4],0.2%
same,minimum growth inhibitory concentration,[5],0.6%
same,minimum growth inhibitory concentration,[6],0.3%
same,minimum growth inhibitory concentration,[7],0.4%
same,Surface effectiveness,[9],34.2 mN/m
same,surface efficiency (−log C20),[9],6.23
same,Critical micelle concentration,[9]; at 25° C.,0.00229 mM
